The values that follow come from US7033829B2, “Method to inhibit cell growth using oligonucleotides” (Trustees of Boston University, priority 2000, dated 2006).

Oligonucleotides are written 5' to 3', each unit as a sugar letter and its base; * is a phosphorothioate linkage, no mark a phosphodiester; rarer units and linkages stand in square brackets, end groups in braces. Plain capitals give the bases only. d = 2'-deoxy (DNA); {P} = phosphate

The test system of data set [1] is BP DNA adducts (CAT reporter plasmid) in H1299 cells. Description: Repair of BP-damaged CAT reporter plasmid in H1299 cells. It is filed as cell-based, human. The procedure:
Preconfluent cultures of H1299 cells were transfected with an expression vector containing the wild type human p53 cDNA under the control of the human cytomegalovirus promoter/enhancer (Dr. Bert Vogelstein, Johns Hopkins Oncology Center). Control transfections were performed using the same vector lacking the p53 cDNA. Transfections were carried out as described previously.
The pCAT vector (Promega) was treated with benzo[a]pyrene-7,8-diol-9,10-epoxide (BP) as described (Athas et al. Cancer Res 1991) to produce less damaged and more damaged plasmids, previously shown to be instructive in studies examining different repair capacities in human cells. Based on the incorporation of ^3H-BPDE into the DNA, the less damaged plasmid contained 25 adducts per 5 kb plasmid and the more damaged plasmid contained 50 adducts. This non-replicating vector contains the chloramphenicol acetyltransferase gene under control of SV40 promoter and enhancer sequences. Human keratinocytes and p53-transfected H1299 cells were pre-treated with either 100 μM pTpT or an equal volume of diluent (DMEM) alone for 48 hours, then transfected with either BP-modified pCAT-control vector (0.5 μg/ml) or unmodified vector (0.5 μg/ml) together with PSV-β-galactosidase control vector (0.5 μg/ml). Cells were collected in a reporter lysis buffer (Promega) 24 hours after transfection. CAT enzyme activity was determined using the liquid scintillation counting protocol and components of the assay system kit (Promega). ^14C-labeled chloramphenicol[50–60 mCi(1.85–2.22 GBq)/mmol] was purchased from New England Nuclear (Boston, Mass.). CAT activity was normalized with β-galactosidase activity.
To confirm that pTpT enhances repair of BP-DNA adducts, at least in part, through p53 activation, p53-null H1299 cells were transfected with the p53 expression vector, and p53 protein expression was then confirmed by western blot analysis 48 hours after transfection.

Data set [2] concerns Human melanoma cell lines CRL 1424, Malma, Sk Mel 2, and Sk Mel 28. Description: Cell yield of human melanoma cell lines. The data set is classed as cell-based. The following applies: 100 μM; one week; any of four cell lines. The procedure:
Human melanoma cell lines CRL 1424, Malma, Sk Mel 2, and Sk Mel 28 were obtained from the American Type Culture Collection (ATCC). The cell lines were maintained in DME+2% calf serum, and dosed with either water (diluent) with DME, or 100 μM T2 in DME. One week after dosage, cells were collected and counted by Coulter™ counter.

Another data set has as its system TNF-α gene. Description: TNFα promoter CAT reporter transgene in skin. It is filed as in vivo, mice. To be noted: intracutaneous pTpT 100 μM; LPS 1 μg/ml. The procedure: In another experiment, TNF-α gene activation was measured by utilizing mice carrying a CAT reporter transgene bearing the entire TNFα promoter and 3′-untranslated region. Transgenic mice were subjected to the following treatment prior to skin assay for CAT expression: UVB irradiation (200–700 J/m^2), intracutaneous injection of pTpT (100 μM); lipopolysaccharide (LPS 1 μg/ml) as positive control, or vehicle alone.

A further data set relates to SDI 1 mRNA. Description: SDI 1 mRNA in H1299 cells with or without p53 expression vector. The data set is classed as cell-based, human. To be noted: 100 μM, 24 hours. On the procedure:
Preconfluent cultures of H1299 cells were transfected with an expression vector containing the wild type human p53 cDNA under the control of the human cytomegalovirus promoter/enhancer (Dr. Bert Vogelstein, Johns Hopkins Oncology Center). Control transfections were performed using the vector from which the p53 cDNA was removed. Transfections were carried out using the Lipofectin Reagent Kit (GIBCO/BRL). One day after transfection, cells were collected for Western blot analysis using 20 μg total protein as described (Yaar, M. et al., J. Clin. Invest. 94:1550–1562 (1994)). p53 was detected using mAb 421, anti-mouse Ig linked to horseradish peroxidase (Amersham, Arlington Heights, Ill.) and an ECL-kit (Amersham), following the directions of the manufacturer. At the time of protein collection, duplicate cultures of H1299 cells transfected with the p53 expression vector (designated “p53”) or control vector (“Ctrl”) were given either diluent (DMEM) or 100 μM pTpT. After 24 hours, the cells were collected, processed for RNA isolation and Northern blot analysis with an SDI 1 cDNA probe. The autoradiograph was scanned using a Macintosh IIsi computer and Macintosh One Scanner, and the brightness and contrast were adjusted to display differences in autoradiographic signals maximally. […]

Another data set concerns caspase-3. Description: Caspase-3 activity in Jurkat cells. It is filed as cell-based, human. To be noted: 40 μM. The procedure:
Duplicate cultures of Jurkat cells were cultured and treated with oligonucleotides as described above. At 48, 72 and 96 hours of treatment, cells were collected by centrifugation, washed and then the pellet lysed by repeated cycles of freeze-thawing. The lysate was then clarified by centrifugation and the supernatant used for protein analysis and Caspase-3 activity assay using the components and instructions of the Colorimetric CaspACE Assay System from Promega (Madison, Wis.). The assay uses the substrate Ac-DEVD-pNA and calorimetrically measures release of free pNA. Caspase activity is expressed as pmol of pNA produced/hour/μg protein.
Apoptosis was also detected by the DNA end-labeling TUNEL assay. Jurkat cells were treated with 40 μM oligonucleotides for 72 hours. Cells were then collected and the TUNEL assay was carried out. […] The activation of caspase-3, another marker of apoptosis, was also examined. Duplicate cultures of Jurkat cells were cultured and treated with oligonucleotides as described above for 48, 72 and 96 hours and caspase-3 activity was measured. The activity of caspase-3 was 50% higher after 48 hours of treatment with the telomere overhang homolog, compared to controls, and 3–4 fold higher in these cells at 72 and 96 hours (FIG. 27). Thus, the oligonucleotide homologous to the telomere 3′ overhang specifically induces an S phase arrest and apoptosis in these cells.

Regarding thymidine dinucleotide [pTpT], in data set [1] (p53+ H1299 cells, high level of BP damage), the “plasmid repair efficiency versus diluent pre-treated cells” value was “more than three times as efficiently”. Also, the “plasmid repaired more efficiently than in diluent pre-treated cells” value in data set [1] (p53+ H1299 cells, low level of BP damage) is recorded as 80%±50%. In data set [1] (p53- H1299 cells), the “repair capacity versus diluent” value is “the repair capacity was the same”. Further, the cell yields entry in data set [2] is “marked decreases in cell yields”. Besides, the “CAT activity in skin” value with TNF-α gene was “CAT activity was detected”. Also, the “level of SDI 1 transcript” value in the data set on SDI 1 mRNA (H1299 transfected with wild-type p53 expression vector) was “inducible by addition of pTpT”; in the data set with SDI 1 mRNA (p53-null H1299 cells) it was “not affected by addition of pTpT”.
As to “pGTTAGGGTTAG (DNA {P}-dGdTdTdAdGdGdGdTdTdAdG) [SEQ ID NO: 5]”, the “caspase-3 activity higher compared to controls” value was 3–4 fold in the data set with caspase-3 (72 and 96 hours); 50% in the data set on caspase-3 (48 hours).
